Measured values taken from publication PMC11931565, “Exploring medium and long arm extensions of 1,2,4-triazole derivatives as Candida albicans 14α-demethylase (CYP51) inhibitors” (RSC Medicinal Chemistry, 2025).
≈ marks a conversion by molar mass, not a printed value. Read-outs that look alike come from different tables or passages of the source. Numbered stars: 1 amine (or outer) side, 2 acyl side, 3 side chain; on linkers, the order of the positions; unused ones are H or OH. Bridge positions count the residues as written; N and C are the ends. Square brackets hold non-standard residues; d marks the D form. Peptide text beside a SMILES is read from it. * marks the point of attachment. hTyr(3S-OH,4S-OH,3'-OSO3H) = N[C@H](C(=O)O)[C@H](O)[C@@H](O)c1ccc(O)c(OS(=O)(=O)O)c1; Orn(4R-OH,5R-OH) = O=C([C@H](C[C@@H](O)[C@@H](O)N[*:3])N[*:1])[*:2]; Pro(3S-OH,4S-Me) = C[C@H]1CN[C@H](C(=O)O)[C@H]1O; X1 = CCCCCOc1ccc(-c2cc(-c3ccc(C(=O)*)cc3)no2)cc1; Gln(3R-OH) = NC(=O)C[C@@H](O)[C@H](N)C(=O)O; Hyp = O=C(O)[C@@H]1C[C@@H](O)CN1

Columns and labels:
[1] = test system: C. albicans wild-type clinical isolate CA14; experiment: C. albicans susceptibility testing (CLSI broth microdilution MIC), strain CA14; format: cell-based, Candida albicans; settings: RPMI 1640, 37 °C, read at 48 h; for MIC: Candida albicans
Excerpt: (§1) Each novel compound was screened against C. albicans wild-type clinical isolate CA14 and C. albicans laboratory strain SC5314 using the standardised CLSI M27-S4 broth dilution method.[28] […] This might be explained by the clog P data as the more lipophilic compounds should more readily penetrate the fungal membrane resulting in improved uptake or may relate to optimal fill of the small hydrophobic pocket leading to improved binding.
(§2) Antifungal MIC values were obtained according to the CLSI microdilution method for yeasts.[28]C. albicans strains CA14 and SC5314 were tested in triplicate. Cultures were diluted to 2.5 × 10^3 cells per mL in RPMI 1640 (Sigma), buffered with 0.165 M MOPS, pH 7.0. Antifungal compounds were dissolved in DMSO and added at a final concentration of 1% v/v DMSO. Plates were incubated at 37 °C and read at 48 h.

[2] = test system: C. albicans laboratory strain SC5314; experiment: C. albicans susceptibility testing (CLSI broth microdilution MIC), strain SC5314; format: cell-based, Candida albicans; settings: RPMI 1640, 37 °C, read at 48 h; for MIC: Candida albicans, SC5314, 48 h
Excerpt: as §1, §2

[3] = target: T1, C. albicans CYP51 (CaCYP51) (Candida albicans, UniProt P10613); experiment: CaCYP51 reconstitution assay (IC50); format: biochemical; settings: 1 μM CaCYP51, 60 μM lanosterol, 15 min at 37 °C
T1 construct: made in house; host or cells: E. coli
T1 sequence (P10613 whole entry): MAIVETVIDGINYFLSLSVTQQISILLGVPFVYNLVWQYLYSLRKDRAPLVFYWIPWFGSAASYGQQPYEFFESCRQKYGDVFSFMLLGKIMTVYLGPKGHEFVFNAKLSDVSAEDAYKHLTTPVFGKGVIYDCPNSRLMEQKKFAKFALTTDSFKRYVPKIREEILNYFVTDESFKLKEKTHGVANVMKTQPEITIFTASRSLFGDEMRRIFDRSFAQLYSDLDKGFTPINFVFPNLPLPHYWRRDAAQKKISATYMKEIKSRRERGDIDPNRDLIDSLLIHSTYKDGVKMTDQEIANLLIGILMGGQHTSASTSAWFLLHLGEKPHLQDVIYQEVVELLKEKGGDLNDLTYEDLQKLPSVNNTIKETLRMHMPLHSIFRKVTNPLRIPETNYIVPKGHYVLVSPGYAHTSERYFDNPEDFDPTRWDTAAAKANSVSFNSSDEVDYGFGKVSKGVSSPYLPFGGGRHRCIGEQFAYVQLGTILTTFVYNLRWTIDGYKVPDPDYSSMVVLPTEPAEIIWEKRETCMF
Description: Derivatives with a MIC <1 μg mL^−1 were chosen for IC50 testing.
C. albicans CYP51 was overexpressed in E. coli and purified and CaCYP51 reconstitutions assays performed.[10,37] The final reaction volume of 500 μL, contained; 1 μM C. albicans CYP51, 2 μM Homo sapiens cytochrome P450 reductase (CPR) (UniProtKB accession number P16435), 60 μM lanosterol, 50 μM dilaurylphosphatidylcholine, 4% w/v 2-hydroypropyl-cyclodextrin, 0.4 mg mL^−1 isocitrate dehydrogenase, 25 mM trisodium isocitrate, 50 mM NaCl, 5 mM MgCl2, and 40 mM MOPS (morpholinepropanesulfonic acid, pH 7.2). Antifungal compounds were added in 2.5 μL DMSO. The reaction was started by the addition of 4 mM NADPH-tetrasodium salt. Samples were shaken for 15 min at 37 °C and sterol metabolites extracted with ethyl acetate and derivatised with BSTFA.

native CaCYP51 = target: T2, native CaCYP51 (Candida albicans, UniProt P10613); experiment: CaCYP51 type II ligand binding affinity (Kd) from difference spectra saturation curves
T2 construct: made in house; host or cells: E. coli
T2 sequence (P10613 whole entry): as above
Description: Azole titration was performed in triplicate.
The ligand–CaCYP51 complex was determined by non-linear regression (Levenberg–Marquardt algorithm) using a rearrangement of the Morrison equation for tight ligand binding,[38] while weak ligand binding was calculated by the Michaelis–Menten equation. Curve fitting for novel azole saturation curves was performed using the computer program ProFit 6.1.12 (QuantumSoft, Zurich, Switzerland) for Mac OSX. Kd values were determined for each of the three replicate titrations per azole compound and then mean Kd values and standard deviations calculated.

[4] = test system: S. cerevisiae Y2411 parent (control levels of wild-type ScCYP51); experiment: MIC, recombinant S. cerevisiae strain Y2411 parent; format: cell-based; settings: Saccharomyces cerevisiae
Description: (§3) The most promising thiazole derivative 7b, and the extended amide derivatives 13a and 13b were evaluated against a panel of recombinant S. cerevisiae strains[24,31,32] expressing control levels of wild-type CYP51 (ScCYP51), overexpressed wild-type ScCYP51, overexpressed azole-resistant ScCYP51 Y140F/H mutations (S. cerevisiae Y140 equivalent to C. albicans Y132), overexpressed C. albicans efflux pumps MDR1a or CDR1B and overexpressed H. sapiens wild-type CYP51 (HsCYP51) (Table 3) at 24 and 48 h with each assay performed in triplicate.
(§4) Minimum inhibitory concentration (MIC) were determined according to recommendations outlined in the Clinical and Laboratory Standards Institute (CLSI) document M27-Ed4E[39] with modifications. Sabouraud dextrose (SD) medium (pH 6.8) was used instead of RPMI-1640 for inoculum and growth of the S. cerevisiae strains and cultures were incubated at 30 °C. […] Stock solutions of each agent were prepared in DMSO and the final concentration of DMSO was 1% (v/v) in SD. […] The final concentration of all other compounds ranged from 0.03–16 μg mL^−1. Three biological repeats were performed.

[5] = test system: S. cerevisiae Y2300 overexpressed wild-type ScCYP51; experiment: MIC, recombinant S. cerevisiae strain Y2300 ScCYP51; format: cell-based; settings: Saccharomyces cerevisiae
Description: as §3, §4

[6] = test system: S. cerevisiae Y2301 overexpressed ScCYP51 Y140F; experiment: MIC, recombinant S. cerevisiae strain Y2301 Y140F; format: cell-based; settings: Saccharomyces cerevisiae, pH 6.8, read-out: MIC Y2301 Y140F
Description: as §3, §4

[7] = test system: S. cerevisiae Y2513 overexpressed ScCYP51 Y140H; experiment: MIC, recombinant S. cerevisiae strain Y2513 Y140H; format: cell-based; settings: Saccharomyces cerevisiae, pH 6.8, read-out: MIC Y2513 Y140H
Description: as §3, §4

[8] = test system: S. cerevisiae Y525 overexpressing C. albicans MFS transporter MDR1a; experiment: MIC, recombinant S. cerevisiae strain Y525 CaMDR1a; format: cell-based; settings: SD medium pH 6.8, 30 °C; 80% inhibition of growth
Description: as §4

[9] = test system: S. cerevisiae Y570 overexpressing C. albicans ABC transporter CDR1B; experiment: MIC, recombinant S. cerevisiae strain Y570 CaCDR1B; format: cell-based; settings: SD medium pH 6.8, 30 °C; 80% inhibition of growth
Description: as §3, §4

[10] = test system: S. cerevisiae Y2760 overexpressed H. sapiens wild-type CYP51 (HsCYP51); experiment: MIC, recombinant S. cerevisiae strain Y2760 HsCYP51; format: cell-based; settings: Saccharomyces cerevisiae
Description: as §3
The HsCYP51 ORF (NP_000777.1) was codon harmonized (ch) using DNA 2.0 for expression in S. cerevisiae and synthesized by ATUM (Newark, Ca, USA). The 3′ end of the ORF was extended to encode EQKI of the ScErg11 C-terminus, followed by a GGR linker and a 6xHis tag. Strain Y2514 was prepared by transforming host strain Y1857 with a transformation cassette including the above construct together with the ScPGK transcription terminator and URA3 selection marker located downstream, bordered by upstream and downstream parts of ScPDR5 gene identical to sequences in ScErg11 over-expressing strain Y941. Strain Y2514 constitutively overexpressed HsCYP51ch-6xHis and URA3 from the ScPDR5 locus.
Strain Y2757 (Y2514, PDR15::HsCPRch-6xHis-LoxP-HIS1-LoxP) was prepared by co-expressing the cognate reductase HsCRP in strain Y2514. Codon harmonisation and synthesis of human NADPH-cytochrome P450 reductase isoform 2 (HsCPRch, NP_001369584.1) ORF was performed by ATUM. The gene was 3′ extended with a sequence encoding GGR-6xHIS. A transformation cassette was prepared by recombinant PCR to include the HsCPRch ORF with 657 nucleotides the ScPDR5 promoter upstream, and the ScPGK terminator followed by the LoxP flanked ScHIS1 selection marker downstream. ScPDR15 specific arms bordering the construct enabled the cassette to be integrated between the nucleotide 441 of the 5′ UTR and nucleotide 1 of the 3′ UTR in PDR15.
Strain Y2758 (Y2757 ΔHIS1) was made using the following steps. Strain Y2757 was transformed with the pSH69 pGAL1-cre plasmid (Euroscarf, Germany) via selection on hygromycin (75 μg mL^−1) containing YPD plates. A single hygromycin positive colony was inoculated in 1% yeast extract, 2% peptone and 2% of galactose broth and incubated for 16 hours at 30 °C with shaking. The diluted culture was then plated on YPD agar and replica-plated on YPD + hygromycin and SD-HIS dropout agar plates. Deletion of the HIS selection marker downstream of HsCPRch-6xHis in the PDR15 locus was confirmed in double His and hygromycin negative isolates by PCR and DNA sequence analysis.
The endogenous ScERG11 ORF in strain Y2758 was removed by transforming with a LoxP- ScHIS1 containing cassette with arms complementing from +387 nucleotides in the 5′UTR and −60 nucleotides in the 3′UTR of the ScERG11 locus, resulting in strain Y2760 (ADΔΔ PDR5::HsCYP51ch-6×HIS-URA3; PDR15::HsCPRch6×HIS-LoxP, ΔERG11-LoxP-HIS1-LoxP).
as §4

[11] = 2.5 μM native CaCYP51, mean ± SD of three titrations, read-out: K d
[12] = SD medium pH 6.8, 30 °C, 80% inhibition of growth, read-out: MIC Y2411 parent
[13] = SD medium pH 6.8, 30 °C, 80% inhibition of growth, read-out: MIC Y2300 ScCYP51
[14] = SD medium pH 6.8, 30 °C, 80% inhibition of growth, read-out: MIC Y2760 HsCYP51

Compound | MIC [1] [µg/mL] | MIC CA14 [1] [µg/mL] | MIC [2] [µg/mL] | MIC SC5314 [2] [µg/mL] | IC50 [3] [nM] | Kd (native CaCYP51; [11]) [nM] | MIC [4, 12] [µg/mL] | MIC [5, 13] [µg/mL] | MIC [6] [µg/mL] | MIC [7] [µg/mL] | MIC [8] [µg/mL] | MIC [9] [µg/mL] | MIC [10, 14] [µg/mL] | Kd (native CaCYP51) [nM] | MIC ([4]; pH 6.8, read-out: MIC Y2411 parent) [µg/mL] | MIC ([5]; pH 6.8, read-out: MIC Y2300 ScCYP51) [µg/mL] | MIC ([10]; pH 6.8, read-out: MIC Y2760 HsCYP51) [µg/mL]
O=C(NCC(O)(Cn1cncn1)c1ccc(Cl)cc1Cl)c1csc(Cl)n1 (stereo not drawn) [7b, 2-Chloro-N-(2-(2,4-dichlorophenyl)-2-hydroxy-3-(1H-1,2,4-triazol-1-yl)propyl)thiazole-4-carboxamide] | < 0.03 | <0.03 | < 0.03 | <0.03 | 410 | 106 ± 15 | 0.125 | 0.5 to 1 | 4 | 2 to 4 | 2 | > 16 | > 16 |  |  |  | 
O=C(NCC(O)(Cn1cncn1)c1ccc(Cl)cc1)c1ccc(NC(=O)c2ccc(Cl)cc2)cc1 (stereo not drawn) [13a, 4-Chloro-N-(4-((2-(4-chlorophenyl)-2-hydroxy-3-(1H-1,2,4-triazol-1-yl)propyl)carbamoyl)phenyl)benzamide] | < 0.03 | <0.03 | < 0.03 | <0.03 | 560 | 46 ± 8 | 0.25 | 1 to 2 | 1 to 2 | 1 | 0.125 | > 16 | > 16 |  |  |  | 
O=C(NCC(O)(Cn1cncn1)c1ccc(Cl)cc1Cl)c1ccc(NC(=O)c2ccc(Cl)cc2)cc1 (stereo not drawn) [13b, 4-Chloro-N-(4-((2-(2,4-dichlorophenyl)-2-hydroxy-3-(1H-1,2,4-triazol-1-yl)propyl)carbamoyl)phenyl)benzamide] | < 0.03 | <0.03 | < 0.03 | <0.03 | 480 | 166 ± 39 | 0.03 to 0.06 | 0.25 | 0.25 | 0.125 | 0.03 to 0.06 | > 16 | 4 to 8 |  |  |  | 
OC(Cn1cncn1)(Cn1cncn1)c1ccc(F)cc1F [FLZ, Fluconazole, reference compound] | 0.125 (≈ 0.408 µM) |  | 0.125 (≈ 0.408 µM) |  |  |  | 4 | 16 | 32 | 32 | 32 | > 128 | > 128 | 31 ± 8 |  |  | 
CCCCCOc1ccc(-c2cc(-c3ccc(C(=O)N[C@H]4C[C@@H](O)[C@@H](O)NC(=O)[C@@H]5[C@@H](O)[C@@H](C)CN5C(=O)[C@H]([C@H](O)CC(N)=O)NC(=O)[C@H]([C@H](O)[C@@H](O)c5ccc(O)c(OS(=O)(=O)O)c5)NC(=O)[C@@H]5C[C@@H](O)CN5C(=O)[C@H]([C@@H](C)O)NC4=O)cc3)no2)cc1 [Micafungin, reference compound] (X1-[Orn(4R-OH,5R-OH)]T[Hyp][hTyr(3S-OH,4S-OH,3'-OSO3H)][Gln(3R-OH)][Pro(3S-OH,4S-Me)]; lactam 1-C) |  |  |  |  |  |  |  |  | 0.125 | 0.125 | 0.125 | 0.125 |  |  | 0.125 | 0.125 | 0.125
CC[C@@H]([C@H](C)O)n1ncn(-c2ccc(N3CCN(c4ccc(OC[C@@H]5CO[C@@](Cn6cncn6)(c6ccc(F)cc6F)C5)cc4)CC3)cc2)c1=O [PCZ, posaconazole, reference compound] |  |  |  |  |  |  | < 0.03 | 0.06 | 0.06 | < 0.03 | < 0.03 | 8 | 8 |  |  |  | 
